The target of the assay is T1, Neurolysin (Nln) (Rattus norvegicus, UniProt P42676).
T1 construct: polyhistidine (N); made in house; host or cells: Escherichia coli (pBAD/His vector), if the rat enzyme of b61 was used
As to the kind of experiment: Nln activation in isolated enzyme assay (A50, Amax). As to conditions: for EC50: read-out: A50 (concentration required to activate Nln by 50%). The format is biochemical.

Where [1] appears, read: 100% = normal enzyme turnover, 95% CI in parentheses.

The source of these data is patent US20210198647A1, “Enhancers of Neurolysin Activity” (Texas Tech University System, priority 2018, published 2021).

“And” between values parts separate entries of the source, which are not always exact repeats. Equal entries are not always repeated. Where two headings read alike, the source gives them in different places. Square brackets hold non-standard residues; d marks the D form. Peptide text beside a SMILES is read from it. * marks the point of attachment. NHPhenethyl = c1ccc(CCN*)cc1; Boc = CC(C)(C)OC(=O)*

T1 sequence (P42676 38-704): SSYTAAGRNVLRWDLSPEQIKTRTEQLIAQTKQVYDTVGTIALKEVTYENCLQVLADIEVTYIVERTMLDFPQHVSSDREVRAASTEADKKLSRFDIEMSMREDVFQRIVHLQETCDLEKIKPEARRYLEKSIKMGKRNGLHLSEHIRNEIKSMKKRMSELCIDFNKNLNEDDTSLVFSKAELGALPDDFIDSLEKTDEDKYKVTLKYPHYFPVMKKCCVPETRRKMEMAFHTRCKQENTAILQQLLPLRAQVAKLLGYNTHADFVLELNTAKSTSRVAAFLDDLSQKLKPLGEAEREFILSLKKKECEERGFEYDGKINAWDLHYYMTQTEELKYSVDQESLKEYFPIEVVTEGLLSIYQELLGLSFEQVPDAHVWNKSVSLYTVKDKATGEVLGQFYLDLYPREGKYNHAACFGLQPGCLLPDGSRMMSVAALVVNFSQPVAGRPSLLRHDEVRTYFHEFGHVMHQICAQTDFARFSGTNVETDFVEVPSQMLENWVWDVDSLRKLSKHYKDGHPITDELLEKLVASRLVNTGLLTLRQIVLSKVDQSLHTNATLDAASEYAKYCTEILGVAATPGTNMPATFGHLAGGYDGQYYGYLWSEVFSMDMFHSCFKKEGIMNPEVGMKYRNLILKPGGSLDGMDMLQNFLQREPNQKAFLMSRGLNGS

As for `N[C@@H](Cc1c[nH]cn1)C(=O)N[C@H](Cc1c[nH]cn1)C(=O)O` [Compound 2], the “Amax (maximum % activation achieved)” value under setting [1] is on record as 202.8 (192.2 to 213.4) %. `COc1ccc(CNC(=O)[C@H](N)Cc2cnc[nH]2)cc1` [AB-1-16-2]: the “Amax (maximum % activation achieved)” value is 703.5 (588.9 to 915.6) %. For `N[C@H](Cc1c[nH]cn1)C(=O)NCc1ccc(OC(F)(F)F)cc1` [Compound 5q, (R)-2-amino-3-(1H-imidazol-4-yl)-N-(4-(trifluoromethoxy)benzyl)propanamide], the “Amax (maximum % activation achieved)” value is reported as 337.1 (312 to 364.9) %. Same read-out and setting: for `N[C@@H](Cc1c[nH]cn1)C(=O)NCc1ccccc1` [DF-3-2B] the value was 152.2 (137.3 to 171.5) %.

Consider `N[C@@H](Cc1c[nH]cn1)C(=O)NCCc1ccccc1` [Compound 4c, (S)-2-amino-3-(1H-imidazol-4-yl)-N-phenethylpropanamide], for which, under setting [1], the “Amax (maximum % activation achieved)” value is 337.2 (302-378.6) %. In the case of `N[C@H](Cc1c[nH]cn1)C(=O)NCCCc1ccccc1` [Compound 7b, (R)-2-amino-3-(1H-imidazol-4-yl)-N-(3-phenylpropyl)propanamide], the “Amax (maximum % activation achieved)” value under setting [1] was 281.8 (269.9-294.5) %. For `N[C@@H](Cc1c[nH]cn1)C(=O)NCCc1ccc(C(F)(F)F)cc1` [AB 3-2-2], the “Amax (maximum % activation achieved)” value is 438.4 (379.4 to 520.4) %. The same measure, in the same setting: for `N[C@@H](Cc1c[nH]cn1)C(=O)NCc1ccc(SC(F)(F)F)cc1` [Compound 5r] the value was 287.5 (277.4 to 298.4) %. For the molecule `N[C@@H](Cc1c[nH]cn1)C(=O)N[C@@H](Cc1ccccc1)C(=O)O` (stereo in doubt) [Compound 3, His-Phe], under “95% CI in parentheses”, the EC50 was 130 µM. The “Amax (maximum % activation achieved)” value is, setting by setting: under setting [1], 573 (547.9 to 602.7) %; (100% = normal enzyme turnover, 95% CI in parentheses, listed as His-Phe) 573 (547.9 to 602.7) %.

`N[C@H](Cc1c[nH]cn1)C(=O)NCc1ccc(F)cc1` [Compound 5o, (R)-2-amino-N-(4-fluorobenzyl)-3-(1H-imidazol-4-yl)propanamide]: the “Amax (maximum % activation achieved)” value is on record as 320.5 (299.7 to 343.9) %. On to `N[C@H](Cc1c[nH]cn1)C(=O)NCCc1ccccc1C(F)(F)F` [HP2CF3], for which the “Amax (maximum % activation achieved)” value was 396.2 (384.5 to 408.5) %. Turning to `N[C@H](C(=O)N1CCC[C@H]1C(=O)O)c1c[nH]cn1` [His-Pro], the “Amax (maximum % activation achieved)” value is 502 (488.4 to 515.7) %. For `CC(C)(C)OC(=O)N[C@@H](Cc1c[nH]cn1)C(=O)NCCc1ccccc1`, the “A50 (concentration required to activate Nln by 50%)” value (95% CI in parentheses) is on record as “Inactive”. The “Amax (maximum % activation achieved)” value under setting [1] is listed as “Inactive”.

On to `N[C@H](Cc1c[nH]cn1)C(=O)NCCCCc1ccccc1` [Compound 8b, (R)-2-amino-3-(1H-imidazol-4-yl)-N-(4-phenylbutyl)propanamide], for which the “Amax (maximum % activation achieved)” value under setting [1] was 233.8 (215.9 to 254.8) %. On to `COc1cccc(CCNC(=O)[C@H](N)Cc2c[nH]cn2)c1` [SR15-1d], for which, under setting [1], the “Amax (maximum % activation achieved)” value is 255.3 (230.5 to 284.8) %. Turning to `N[C@H](Cc1c[nH]cn1)C(=O)NCCc1cc2ccccc2[nH]1` [SR-8-2d], the “Amax (maximum % activation achieved)” value was 132 (122.5 to 143.6) %.

With `N[C@@H](Cc1c[nH]cn1)C(=O)NCCc1ccccc1` [NK-61-4A], under setting [1], the “Amax (maximum % activation achieved)” value is reported as 231 (216.2 to 248.9) %. As to `N[C@@H](Cc1c[nH]cn1)C(=O)NCc1ccc(C(F)(F)F)cc1` [DF-8-2], the “Amax (maximum % activation achieved)” value is recorded as 305.2 (285.3 to 328) %. For the molecule `COc1ccc(CNC(=O)[C@@H](N)Cc2c[nH]cn2)cc1` [SR20-1d], the “Amax (maximum % activation achieved)” value was 428.8 (373 to 523.5) %. Take `N[C@@H](Cc1c[nH]cn1)C(=O)NCCCc1ccccc1` [Compound 7a, (S)-2-amino-3-(1H-imidazol-4-yl)-N-(3-phenylpropyl)propanamide]: the “Amax (maximum % activation achieved)” value under setting [1] was 288.1 (273.6 to 303.8) %. Regarding `CC(C)(C)OC(=O)N[C@@H](Cc1c[nH]cn1)C(=O)N[C@H](Cc1ccccc1)C(=O)O` [Compound 4b] (Boc-His-[dF]-OH), the “Nln activation (in words)” value was “inactive”.

In the case of `N[C@@H](Cc1c[nH]cn1)C(=O)NCc1cccc2ccccc12` [SR-9-1d], the “Amax (maximum % activation achieved)” value under setting [1] was 264 (256.3 to 272.6) %.

Turning to `N[C@H](Cc1c[nH]cn1)C(=O)NCc1cccc2ccccc12` [SR-10-1d], the “Amax (maximum % activation achieved)” value under setting [1] was 343 (325.2 to 363.5) %. For `COc1cccc(CNC(=O)[C@@H](N)Cc2c[nH]cn2)c1` [Compound 5f], the “Amax (maximum % activation achieved)” value is on record as 327.5 (309.7 to 348.2) %.

Take `N[C@@H](Cc1c[nH]cn1)C(=O)N[C@@H](Cc1ccccc1)C(=O)NCCc1ccccc1` [AB-2-5-4] (H-His-Phe-NHPhenethyl): where the note is “95% CI in parentheses”, the EC50 is 5.4 µM. The “Amax (maximum % activation achieved)” value under setting [1] is reported as 177.6 (158.7 to 198.1) %. For `N[C@@H](Cc1c[nH]cn1)C(=O)NCc1ccc2ccccc2c1` [DF-9-2], the EC50 (95% CI in parentheses) was 12.3 µM. Under setting [1], the “Amax (maximum % activation achieved)” value was 262.3 (246.7 to 279.4) %. For the molecule `N[C@@H](Cc1c[nH]cn1)C(=O)NCc1ccc(F)cc1` [DF-6-2A], the “Amax (maximum % activation achieved)” value is recorded as 252 (235.6 to 270.5) %. Regarding `N[C@@H](Cc1c[nH]cn1)C(=O)NCCc1ccc(F)cc1` [Compound 4m, (S)-2-amino-N-(4-fluorophenethyl)-3-(1H-imidazol-4-yl)propanamide], where the note is “95% CI in parentheses”, the EC50 was 28 µM and 27.9 µM. Besides, the “Amax (maximum % activation achieved)” value under setting [1] is 323.1 (311.4 to 335.6) %. For the molecule `N[C@@H](Cc1c[nH]cn1)C(=O)N1CCCC1` [SR-5-3d], the “Amax (maximum % activation achieved)” value under setting [1] is listed as 173 (158.5 to 194.1) %.

`CC(C)(C)OC(=O)N[C@@H](Cc1c[nH]cn1)C(=O)N[C@H](Cc1ccccc1)C(=O)O` [NK-61-2A] (Boc-His-[dF]-OH): under “95% CI in parentheses”, the “A50 (concentration required to activate Nln by 50%)” value is given as “Inactive”. For the same molecule, the “Amax (maximum % activation achieved)” value under setting [1] is on record as “Inactive”. Consider `N[C@H](Cc1c[nH]cn1)C(=O)NCCc1ccc(C(F)(F)F)cc1` [Compound 4l, (R)-2-amino-3-(1H-imidazol-4-yl)-N-(4-(trifluoromethyl)phenethyl)propanamide], for which the “Amax (maximum % activation achieved)” value is given as 330.1 (313.9 to 347.7) %. With `N[C@H](Cc1c[nH]cn1)C(=O)NCc1ccccc1C(F)(F)F` [Compound 5k, (R)-2-amino-3-(1H-imidazol-4-yl)-N-(2-(trifluoromethyl)benzyl)propanamide], the “Amax (maximum % activation achieved)” value is on record as 345.8 (317.5 to 378.3) %. `COc1cccc(CNC(=O)[C@H](N)Cc2cnc[nH]2)c1` [AB-1-14-2]: the “Amax (maximum % activation achieved)” value is on record as 477.1 (444 to 516) %. Regarding `COc1ccc(CCNC(=O)[C@@H](N)Cc2c[nH]cn2)cc1` [Compound 4e, (S)-2-amino-3-(1H-imidazol-4-yl)-N-(4-methoxyphenethyl)propanamide], under setting [1], the “Amax (maximum % activation achieved)” value is recorded as 339.4 (314.2 to 369.3) %. On to `N[C@H](Cc1c[nH]cn1)C(=O)Nc1ccccc1` [Compound 6b, (R)-2-amino-3-(1H-imidazol-4-yl)-N-phenylpropanamide], for which the EC50 (95% CI in parentheses) was determined as 114 µM. Besides, the “Amax (maximum % activation achieved)” value under setting [1] was 440.3 (414.9 to 470.4) %. Take `N[C@H](Cc1c[nH]cn1)C(=O)NCCc1ccccc1` [AB-2-7-2]: the “Amax (maximum % activation achieved)” value under setting [1] is given as 407 (382.7 to 434.9) %. For `N[C@@H](Cc1c[nH]cn1)C(=O)N[C@@H](Cc1ccc(O)cc1)C(=O)O` [Compound 1, Histidine-tyrosine] (H-His-Tyr-OH), the “Amax (maximum % activation achieved)” value by setting is: under setting [1], 467 (424.9 to 516.9) %; (100% = normal enzyme turnover, 95% CI in parentheses, listed as His-Tyr) 467 (424.9 to 516.9) %. Regarding `N[C@H](Cc1c[nH]cn1)C(=O)NCCc1ccc([N+](=O)[O-])cc1` [Compound 4p, (R)-2-amino-3-(1H-imidazol-4-yl)-N-(4-nitrophenethyl)propanamide], the “Amax (maximum % activation achieved)” value is on record as 267.5 (250.1 to 287.1) %. Regarding `N[C@@H](Cc1c[nH]cn1)C(=O)NCCc1ccc(F)cc1` [DF-2-2B], under “95% CI in parentheses”, the EC50 was 27.9 µM. The “Amax (maximum % activation achieved)” value under setting [1] is recorded as 323.1 (311.4 to 335.6) %. Turning to `CC(C)(C)OC(=O)N[C@@H](Cc1c[nH]cn1)C(=O)NCCc1cc2ccccc2[nH]1` [PT-1-172], the “A50 (concentration required to activate Nln by 50%)” value (95% CI in parentheses) was “Inactive”. Further, the “Amax (maximum % activation achieved)” value under setting [1] is “Inactive”.

With `N[C@H](Cc1c[nH]cn1)C(=O)NCc1ccc(C(F)(F)F)cc1` (single isomer, unassigned) [AB1-17-2], the “Amax (maximum % activation achieved)” value is 598.8 (532.8 to 692.9) %.

Regarding `N[C@H](Cc1c[nH]cn1)C(=O)NCCc1ccccc1` [Compound 4d, (R)-2-amino-3-(1H-imidazol-4-yl)-N-phenethylpropanamide], the “Amax (maximum % activation achieved)” value under setting [1] is 294.6 (278.0 to 313) %. With `N[C@@H](Cc1ccccn1)C(=O)NCCc1ccccc1` [AB-1-3-2], the “A50 (concentration required to activate Nln by 50%)” value (95% CI in parentheses) was “Inactive”. Further, the “Amax (maximum % activation achieved)” value under setting [1] is given as “Inactive”. `N[C@@H](Cc1c[nH]cn1)C(=O)NCCc1cc2ccccc2[nH]1` [SR-7-2d]: the “Amax (maximum % activation achieved)” value is 259 (240.7 to 281) %. For the molecule `N[C@@H](Cc1c[nH]cn1)C(=O)Nc1ccccc1` (single isomer, unassigned) [DF-5-2A], the EC50 (95% CI in parentheses) worked out at 7.74 µM. The “Amax (maximum % activation achieved)” value under setting [1] is recorded as 139.8 (124.7 to 158.4) %. `N[C@@H](Cc1ccc(O)cc1)C(=O)N[C@H](Cc1c[nH]cn1)C(=O)O` [Compound 4a, H-Try-His-OH] (H-Tyr-[dH]-OH): the “Nln activation (in words)” value is listed as “complete amelioration of Nln activation”. Where the note is “95% CI in parentheses”, the “A50 (concentration required to activate Nln by 50%)” value is listed as “Inactive”. Also, the “Amax (maximum % activation achieved)” value under setting [1] was “Inactive”. For `N[C@@H](Cc1c[nH]cn1)C(=O)NCCCCc1ccccc1` [Compound 8a, (S)-2-amino-3-(1H-imidazol-4-yl)-N-(4-phenylbutyl)propanamide], the “Amax (maximum % activation achieved)” value under setting [1] is reported as 328 (309-351) %. In the case of `NC(Cc1c[nH]cn1)C(=O)NCCc1cc2ccccc2[nH]1` (racemic) [(±)PT-1-173 RACEMIC], the “Amax (maximum % activation achieved)” value is 311 (298.6 to 325.7) %.

For the molecule `N[C@@H](Cc1c[nH]cn1)C(=O)NCc1cccc(C(F)(F)F)c1` [AB-1-6-2], the “Amax (maximum % activation achieved)” value is listed as 494.4 (476.7 to 512.9) %.
